Laboratory results reported in patent US20020132319A1, “Peptide mutant of human ERAB or HADH2, its X-ray crystal structure, and materials and method for identification of inhibitors thereof” (priority 2000, published 2002).
“Also recorded” adds a separate entry of the source.

How the values were obtained:
[1] = target: Streptomycetes hydrogenans 3α-20β- hydroxysteroid dehydrogenase (Streptomyces exfoliatus, UniProt P19992); test: Inhibition of related SDR family member (Streptomyces enzyme); assay type: biochemical; conditions: at concentrations as high as 100 μM
wild-type ERAB or HADH2 [2] = target: T1, wild-type ERAB or HADH2 (Homo sapiens, UniProt Q99714); test: Isothermal titration calorimetry, inhibitor binding experiments
T1 construct: made in house; host or cells: E. coli (plasmid pMGH4; spontaneous mutant of strain BL21(DE3), 'B121 (DE3)' [sic])
T1 sequence (Q99714 1-261): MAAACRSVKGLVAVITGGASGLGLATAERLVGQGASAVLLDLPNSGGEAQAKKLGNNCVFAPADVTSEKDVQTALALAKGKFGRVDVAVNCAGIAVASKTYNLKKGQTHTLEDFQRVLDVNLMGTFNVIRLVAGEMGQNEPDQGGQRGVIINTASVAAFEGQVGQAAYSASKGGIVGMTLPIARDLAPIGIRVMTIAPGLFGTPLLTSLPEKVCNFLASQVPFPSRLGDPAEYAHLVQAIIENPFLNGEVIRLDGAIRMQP
Description: FIG. 5 is a plot of integrated-binding data obtained for a calorimetric titration of wild-type ERAB or HADH2 into Compound I in the presence and absence of cofactor. Wild-type ERAB or HADH2 (415 μM) was titrated into 20 μM inhibitor in the presence and absence of 20 μM cofactor at 15° C. The closed symbols represent the integrated-data points for 10 μL injections of ERAB or HADH2 into inhibitor in the absence of cofactor (♦); in the presence of NAD^+ (●); and in the presence of NADH (▪). The open symbols represent the integrated data points for the corresponding control titrations of ERAB or HADH2 into buffer (Δ); in the presence of NAD^+ (∘); and in the presence of NADH (□). Lines connecting the data points have been added for visual clarity.
(§1) Titrations described herein were performed with an MCS microcalorimeter (obtained from MicroCal, Inc., Northampton, […].).
(§2) For the inhibitor binding experiments, the titrations were performed in 25 mM MOPS (pH 7.5), 125 mM NaCl, 10% glycerol, 2.0% DMSO, 0.5 mM TCEP (Tri(2-carboxyethyl)phosphine), 0.1 mM EDTA at 15° C. The syringe contained 415 μM wild-type ERAB or HADH2 and the cell contained either 20 μM inhibitor, 20 μM cofactor, or 20 μM each of inhibitor and cofactor. After a preliminary 20 μL injection, 12 injections of 10.0 μL each were made at 4 minute intervals. Dilution control titrations of buffer into buffer, protein into buffer, and buffer into inhibitor, cofactor and inhibitor/cofactor mixture were also performed. For the cofactor binding experiments, the titrations were performed in 50 mM MOPS (3-(N-morpholino) propanesulfonic acid, pH 7.5), 250 mM NaCl, 10% glycerol, 2.0% DMSO, 10 mM TCEP at 15° C.

[3] = target: E. coli 17β-hydroxysteroid dehydrogenase (Escherichia coli, UniProt P0AET8); test: Inhibition of related SDR family member (E. coli enzyme); assay type: biochemical; conditions: at concentrations as high as 100 μM
ERAB or HADH2 = target: T2, ERAB or HADH2 (Homo sapiens, UniProt Q99714); test: Spectrophotometric ERAB or HADH2 inhibition assay (NADH, acetoacetyl-CoA as substrate); assay type: biochemical
T2 construct: made in house; host or cells: E. coli (plasmid pMGH4)
T2 sequence (Q99714 1-261): T1 sequence (Q99714 1-261)
Description: The IC50 value for Compound I was determined spectrophotometrically by monitoring the […] of NADH to NAD^+ with acetoacetyl-CoA as substrate. Enzyme (2.5 nM) was preincubated with inhibitor for 400 seconds at 30° C. in the presence of 36 uM NADH, 25 mM MOPS, pH 7.5, 250 mM NaCl, 2% (v/v) DMSO, and 2.5 mM TCEP. The reaction was initiated by addition of substrate (38 μM). Reduction of NADH was monitored at […]. The IC50 value was determined by non-linear regression analysis using KaleidaGraph (obtained from Synergy Software, Reading, Pa.).

wild-type ERAB or HADH2 [4] = target: T1, wild-type ERAB or HADH2; test: Isothermal titration calorimetry, cofactor binding experiments; conditions: 2.68 mM cofactor titrated into 127 μM wild-type ERAB or HADH2, 15° C.; read-out: Kd for NAD+
Description: as §1, §2
For the NADH titration, the syringe contained 700 μM cofactor and the cell contained 35 μM wild type ERAB or HADH2. For the NAD^+ titration, the syringe contained 2.68 mM cofactor and the cell contained 127 μM wild-type ERAB or HADH2.

Chain of E. coli 17β-hydroxysteroid dehydrogenase (P0AET8 whole entry): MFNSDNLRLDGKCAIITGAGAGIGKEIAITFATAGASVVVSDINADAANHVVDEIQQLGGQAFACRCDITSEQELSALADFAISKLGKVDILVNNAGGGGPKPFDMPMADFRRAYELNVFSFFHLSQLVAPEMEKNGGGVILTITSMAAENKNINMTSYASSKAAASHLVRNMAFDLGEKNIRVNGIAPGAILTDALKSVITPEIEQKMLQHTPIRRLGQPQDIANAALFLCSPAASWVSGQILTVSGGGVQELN
Chain of Streptomycetes hydrogenans 3α-20β- hydroxysteroid dehydrogenase (P19992 whole entry): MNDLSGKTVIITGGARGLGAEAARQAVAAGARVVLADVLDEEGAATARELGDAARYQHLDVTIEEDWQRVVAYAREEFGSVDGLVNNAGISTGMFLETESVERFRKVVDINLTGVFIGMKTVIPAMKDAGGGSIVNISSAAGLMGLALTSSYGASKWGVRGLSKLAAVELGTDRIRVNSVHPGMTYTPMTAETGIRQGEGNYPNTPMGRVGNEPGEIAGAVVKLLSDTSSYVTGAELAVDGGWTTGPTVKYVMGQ

| ITC binding when ERAB or HADH2 titrated into cofactor alone (wild-type ERAB or HADH2 [2]; ERAB 415 μM titrated into 20 μM NAD+ alone, 15° C.) | Kd (wild-type ERAB or HADH2 [4]) [µM] | SMILES | inhibition of Streptomycetes hydrogenans 3α-20β-hydroxysteroid dehydrogenase [1] | ITC binding to ERAB or HADH2 in the absence of cofactor (wild-type ERAB or HADH2 [2]; ERAB 415 μM titrated into 20 μM inhibitor alone, 15° C.) | ITC binding to ERAB or HADH2 in the presence of NAD+ (wild-type ERAB or HADH2 [2]; ERAB titrated into equimolar 20 μM inhibitor and NAD+, 15° C.) | ITC binding to ERAB or HADH2 in the presence of NADH (wild-type ERAB or HADH2 [2]; ERAB titrated into equimolar 20 μM inhibitor and NADH, 15° C.) | binding to ERAB or HADH2 more potent with NAD+ than in the absence of NAD+ (wild-type ERAB or HADH2 [2]; with NAD+ versus absence of NAD+) | inhibition of E. coli 17β-hydroxysteroid dehydrogenase [3] | IC50 against ERAB (ERAB or HADH2; Compound I made according to Scheme 1) [µM] | average IC50 against ERAB or HADH2 (ERAB or HADH2; Compound I made according to Scheme 2, racemic mixture) [µM] |
| --- | --- | --- | --- | --- | --- | --- | --- | --- | --- | --- |
|  |  | O=C(C(c1ccccc1)n1cnc2[nH]ncc2c1=S)N1CCCCCC1 (racemic) [Compound I, 1-azepan-1-yl-2-phenyl-2-(4-thioxo-1,4-dihydro-pyrazolo[3,4-d]pyrimidin-5-yl)-ethanone] | no detectable inhibition | binds weakly; also recorded: No binding was detected | tight-binding curve | binds weakly | approximately 1000 fold | no detectable inhibition | 0.088 | 0.092 ± 0.005 |
| No binding was detected | ~500 | NC(=O)c1ccc[n+]([C@@H]2O[C@H](COP(=O)([O-])OP(=O)(O)OC[C@H]3O[C@@H](n4cnc5c(N)ncnc54)[C@H](O)[C@@H]3O)[C@@H](O)[C@H]2O)c1 [NAD^+, reference compound] |  |  |  |  |  |  |  |  |
